Laboratory results reported in US20260083687A1, “COMPOUNDS FOR REDUCING LACTATION AND IMPROVING HEALTH” (AHV International B.V., priority 2022, published 2026).

Legend:
Type in all cases: in vivo, cow
cows = assay: Administering of DPD at abrupt dry off and occurrence of mastitis / new intramammary infections, milk leakage, SCC (Example 10)
Method: Study design. Cow description. 59 cows from 5 different farms were used for this study. The cows were randomly divided into 3 groups: • Control group; • DPD Treatment group 1: DC Liquid (500 mL) group (composition with 80 ml pure dipropyl disulfide); and • DPD Treatment group 2: DPD enriched onion Extract (OE) bolus (150 mL) group (corresponding to 80 ml pure dipropyl disulfide).
The control group consisted of 24 cows with an average milk production prior to dry off of 17.23 liters. […] The average lactation of the control group was 2.1 and they had on average a dry period of 48 days (10 animals in 1st lactation, 4 in 2nd lactation, 6 in 3th lactation and 4 in 4th lactation). 50% of all cows in the control group were observed leaking milk regardless of milk production prior to dry off, and the incidence goes up to 63% if the cows with production below or equal to 12.5 liters prior to dry off or discarded.
The DC Liquid treatment group consisted of 18 cows with an average mp prior to dry off of 21.61 liters (1 cow with a mp lower than 12.5 liters, lowest 11.40 liters and highest 32 liters). The average lactation of the DC Liquid group was 1.9 with 11 cows in 1st lactation, 2 cows in 2nd, 3 cows in 3th, and 2 cows in 5th lactation. The average dry period of this group was 49 days.
The DPD enriched OE bolus treatment group consisted of 17 cows with an average mp prior to dry off of 20.6 liters (lowest 13.8 and high 32 liters) and an average lactation of 2.2 (6 cows in 1 s lactation, 4 cows in 2nd, 4 cows in 3th, and 3 cows in 4th lactation). 1 cow dropped out during the dry period because of non-related lameness issues. The dry period of this group was on average 46 days.
After the last milking the cows received the dry off protocol according to the farms protocols. The DPD treatment groups received a DPD treatment in the form of a bolus dose by bolus shooter in the rumen. Both treatment groups consisted of treatment with 80 ml DPD. In all cases abrupt dry-off was applied, with no restriction in number of milking nor change of feed prior to dry-off. Before moving to the dry pen all cows underwent hoof trimming. During the dry period and after calving the cows were monitored for signs of mastitis. Before the cows were 30 days in lactation a SCC was determined to evaluate the dry period.
Intramammary infections (IMI) were defined as signs of a clinical mastitis (ao. Flocks, watery milk, coloring of milk) cases during the dry period and in the first 30 days in lactation or a rise in individual somatic cell count (ISCC) from before to after the dry period (threshold: 200,000 cells/mL) or both.

[1] = system: Holstein Frisian dairy cows; assay: Effect of 80 ml synthetic DPD on udder pressure, stress behavior and milk leakage after abrupt dry off (Example 3)
Method: Holstein Frisian dairy cows were selected with a production of at least 12.5 kg milk/day at the last lactation. These cows were immediately treated after the last milking before abrupt dry off with 80 ml di-n-propyl disulfide (DPD) took place in the three studies of this example. Because of a limited number of available cows, a control group was available only in study 3. Treated cows were monitored for udder pressure, milk leakage and stress after the last milking every 12 hours for the first 72 hours.
46 Dairy cows (Holstein Frisian) from 7 farms in The Netherlands were enrolled in this field study for two months. In table 8 a description is presented with respect to some keeping conditions of and information about the cows.
After the last milking, the cows were isolated from the other lactating cows. Only at farm 2 and 6 the cows could hear the milking machine. After isolation the cows were administered 80 ml synthetic DPD. Hereafter, the cows were monitored by the farmer for 72 hours and scored each 12 hour after abrupt dry off. The farmer scored visually for milk leakage (yes/no-scores), udder pressure and stress according to a standard scoring form (see tables 9 and 10). Cows somatic cell count numbers were extracted from the last milk recording before drying and the first milk recording after calving (5-30 Days In Lactation).
Data analysis: the control groups with respect to milk leakage, udder stress and stress were scored and compared with the data as presented earlier in literature. For milk leakage, the data were compared assumed that 24.5% of the cows are going to leak milk after drying off (De Prado-Taranilla et al., 2020. Incidence of milk leakage after dry-off in European dairy herds, related risk factors, and its role in new intramammary infections. Journal of Dairy Science, 103(10), 9224-9237.). Udder Pressure (Bertulat et al., 2013. Measurement of fecal glucocorticoid metabolites and evaluation of udder characteristics to estimate stress after sudden dry-off in dairy cows with different milk yields. Journal of Dairy Science, 96(6), 3774-3787) and Stress (Chapinal et al., 2014. Changes in lying behavior after abrupt cessation of milking and regrouping at dry-off in free stall-housed cows: A case study. Journal of Veterinary Behavior, 9(6), 364-369;) were translated to the scoring tables as expected outcome (table 11).

[2] = system: cows (Holstein Friesians); assay: Treatment with DPD analogs (organosulfur compounds) and milk yield (Example 8); conditions: individual cows; dose per compound as listed in E284
Method: Study design. 36 cows (Holstein Friesians) from 2 farms were used. The feed of the cows was composed of TMR, including corn and grass silage, supplemented with soya and minerals. […] The cows were milked in a milk robot. […] The cows were milked twice a day. The cows were housed in free stables. […] Placebo treatment corresponded to administration of two gel capsules containing 180 ml water.
For this study dosages synthetic compounds (>96% purity) as indicated in table 17 were administered to cows. The objective of this study was to compare the activity of a corresponding dose of the compounds expressed in mol, based on the number of moles that is present in 80 ml di-n-propyl disulfide at 20° C. The number of moles was converted to ml or grams of the tested compounds. For this purpose, the molecular weight and specific density were used in the calculations. The compounds were formulated in the gel capsules as indicated in the previous examples.
Before the various dosages were administered, the milk yields were monitored for at least 5 days.

[3] = 80 ml synthetic DPD, abrupt dry off, vs control group

For `CCCSSCCC` [DPD, di-n-propyl disulfide], the “outcome of animals that entered the dry period diagnosed with an IMI” value (cows; 3 animals (2 DC Liquid, 1 DPD enriched OE)) was “all 3 recovered at the start of the new lactation”, the “animals diagnosed with a new IMI after calving” value (cows; 80 ml DPD at abrupt dry off) was 21% and the “cases with a decrease of SCC after calving” value (cows; 80 ml DPD at abrupt dry off) was 61%. For the same molecule, the “incidence of milk leakage” value (cows; 80 ml DPD at abrupt dry off, DPD treatment groups 1 and 2 combined) was 17%, the “reduction of risk of new IMI” value (cows; DPD treated groups combined vs control group) was 42% and the “reduction of incidence of milk leakage” value (cows; DPD treatment groups combined vs control group) was 73%. The “cows with signs of mastitis (flocks in milk)” value (cows; after calving, DPD treatment group) was 1 cow, the “cows with signs of clinical mastitis” value (cows; during the dry period, DPD treatment group) was 1 cow and the side effects ([1]; 80 ml synthetic DPD after last milking, 46 cows) was “None of the cows showed any side effects”. The “milk fever at calving” value ([1]; 80 ml synthetic DPD at dry off) was “None of the cows had milk fever at calving”, the “average SCC (somatic cell count)” value ([1]; 80 ml synthetic DPD at dry off, first milk recording of the new lactation) was 58,000 cells/ml and the milk leakage [1, 3] was “less milk leakage”. The stress [1, 3] was “lower”, the udder pressure [1, 3] was “lower udder pressure” and the “average SCC (somatic cell count)” value ([1]; last milk recording of the last lactation (before dry off)) was 89,000 cells/ml. The “Milk yield (kg) After 24 h” value [2] was 8.5 kg, the “Milk yield (kg) After 48 h” value [2] was 7.4 kg and the “Milk yield (kg) After 72 h” value [2] was 15.6 kg. The “Milk yield (kg) After 96 h” value [2] was 17.7 kg.
